Structures are written as SMILES.

Data set [1] is described as follows: Release (dissolution) profile of modified-release tablets, USP Apparatus 1 (baskets) at 100 rpm, 500 mL aqueous sodium phosphate 0.05 M, pH 6.8. Type of data set: physicochemical. The text has this:
USP Apparatus 1 (BASKETS) is described, for example, in the United States Pharmacopeial Convention, Feb. 1, 2012, Chapter <711> (“Dissolution”), incorporated by reference herein in its entirety. See http://www.usp.org/sites/default/files/usp_pdf/EN/USPNF/revisions/m99470-gc_711.pdf. The USP Apparatus 1 (baskets) assembly consists of the following: a vessel, which may be covered, made of glass or other inert, transparent material; a motor; a metallic drive shaft, and a cylindrical basket. The materials should not sorb, react, or interfere with the specimen being tested. The vessel is partially immersed in a suitable water bath of any convenient size or heated by a suitable device such as a heating jacket. The water bath or heating device permits holding the temperature inside the vessel at 37±0.5° during the test and keeping the bath fluid in constant, smooth motion. No part of the assembly, including the environment in which the assembly is placed, contributes significant motion, agitation, or vibration beyond that due to the smoothly rotating stirring element. An apparatus that permits observation of the specimen and stirring element during the test is preferable. The vessel is cylindrical, with a hemispherical bottom and with one of the following dimensions and capacities: for a nominal capacity of 1 L, the height is 160 mm to 210 mm and its inside diameter is 98 mm to 106 mm; for a nominal capacity of 2 L, the height is 280 mm to 300 mm and its inside diameter is 98 mm to 106 mm; and for a nominal capacity of 4 L, the height is 280 mm to 300 mm and its inside diameter is 145 mm to 155 mm. Its sides are flanged at the top. A fitted cover may be used to retard evaporation. If a cover is used, it provides sufficient openings to allow ready insertion of the thermometer and withdrawal of specimens. The shaft is positioned so that its axis is not more than 2 mm at any point from the vertical axis of the vessel and rotates smoothly and without significant wobble that could affect the results. The vertical center line of the blade passes through the axis of the shaft so that the bottom of the blade is flush with the bottom of the shaft. A distance of 25±2 mm between the bottom of the blade and the inside bottom of the vessel is maintained during the test. The metallic or suitably inert, rigid blade and shaft comprise a single entity. A suitable two-part detachable design may be used provided the assembly remains firmly engaged during the test. […]
The release profiles for modified-release tablets were measured using USP Apparatus 1 (baskets).
All release profiles disclosed in Tables 6a-6d were measured with USP Apparatus 1 (baskets) at 100 rpm in 500 mL of aqueous sodium phosphate at a concentration of 0.05 M (pH=6.8). […]

Data set [2] in a line: Example 8: 22-week randomized, double-blind, placebo-controlled study (PVR, 6MWD, plasma levels, adverse events). Type of data set: in vivo, human. The method, then: A 22-week randomized, double-blind, placebo-controlled study with a dose titration period of up to 9 weeks was conducted. Sixty-one patients were randomized 2:1 Compound 1 to placebo. Right Heart Catheterization (RHC) measurements were obtained prior to study Day 1 of the dose titration period and at Week 22. The following values were obtained and recorded: pulmonary artery pressure (PAP) (systolic, diastolic, and mean), heart rate (HR), right atrial pressure (RAP), pulmonary capillary wedge pressure (PCWP) right ventricular pressure (RVP) and cardiac output (CO), pulmonary vascular resistance (PVR), arterial and mixed venous oxygen saturation […] (if applicable). Systemic vascular resistance (SVR) was estimated from blood pressure measurements. The 6-minute walk test (6MWD) was conducted according to the modified guidelines issued by the American Thoracic Society. See Am J Respir Crit Care Med 166:111-117, 2002.
Primary efficacy endpoints for the study were: a) change from baseline in PVR after 22 weeks of treatment, and b) change from baseline in 6 MWD after 22 weeks of treatment.
Compound 1 was administered as a capsule in 0.01, 0.02, 0.03, 0.04, and 0.10 mg dose strengths. The formulation was supplied as a liquid-filled, size 4, hard-gelatin capsule containing Compound 1, polyoxyl 40 hydrogenated castor oil (Kolliphor® RH40) NF, butylated hydroxytoluene (BHT)NF, and colloidal silicon dioxide NF.
The starting dose of Compound 1 was 0.01 mg twice daily. The dose of Compound 1 was titrated according to patient tolerability. If the initial dose was tolerated (0.01 mg twice daily), then the dose was increased once a week in the following fashion: 0.02 mg twice daily, 0.03 mg twice daily, 0.04 mg twice daily, 0.06 mg twice daily, 0.08 mg, 0.1 mg twice daily, 0.2 mg twice daily and 0.3 mg twice daily. The dose was optionally escalated to a possible maximum total daily dose of 0.6 mg (0.3 mg twice daily), pending tolerability.

The nature of data set [3]: Plasma pharmacokinetics of Compound 1 stated in background and description (initial clinical studies). The settings on record: immediate-release capsule formulation. Type of data set: in vivo.

In the case of `O=C(O)COC[C@H]1CC[C@H](COC(=O)N(c2ccccc2)c2ccc(Cl)cc2)CC1` [Compound 1, 2-(((1r,4r)-4-(((4-chlorophenyl)(phenyl)carbamoyloxy)methyl)cyclohexyl)methoxy)acetic acid], the “difference of % by weight released, initial profile vs after storage” value in data set [1] (tablets 0.05 mg and 0.5 mg Compound 1 (FIGS. 12, 13), storage at 40° C. and 75% RH for six months, any time point equal to or greater than 2 hours) is no more than 10%. In addition, the “release rate relative to modified-release capsule” value is “faster than that of the modified-release capsule” in data set [1] (tablets 0.5 mg Compound 1 with 40% HPMC K4M CR, 100 mg, 7 kP); “slightly faster than that of the modified-release capsule” in data set [1] (tablets with 30% HPMC K4M and 20% HPMC K100 LVCR, wet granulation); “faster than that of the modified-release capsule at time points <6 hrs but slower than that of the modified-release capsule at time points 6 hrs” in data set [1] (tablets with 40% HPMC K4M and 10% HPMC K100 LVCR, wet granulation). Also, the Adverse events result in data set [2] (22-week study) is on record as “consistent with other prostacyclin treatments”. Besides, the “6-minute walk distance (6MWD)” value in data set [2] (after 22 weeks of treatment) was “numerical improvement”. For the same compound, the “change from baseline in pulmonary vascular resistance (PVR) compared to placebo” value in data set [2] (after 22 weeks of treatment, capsule twice daily, titrated up to 0.3 mg twice daily) is recorded as “statistically significant change from baseline”. In data set [2] (immediate-release capsule twice daily, titrated, patients), the “mean pre-dose and 4-hours post-dose plasma levels” value is on record as “appear similar to those previously observed in healthy human subjects”. The “correlation of 4 hour post-dose plasma concentrations with percent change from baseline in PVR and 6MWD” value in data set [2] (in vivo) was “strong and positive correlation”. For the same compound, in data set [3], the “Cmax and peak-trough fluctuation” value is “high Cmax and peak-trough fluctuation”.

The values above are taken from US12642771B2, “Compositions comprising PGI2-receptor agonists and processes for the preparation thereof” (Arena Pharmaceuticals, Inc., priority 2017, dated 2026).
